The structures appear in SMILES notation.

The target of this experiment is T1, BRM (Homo sapiens, UniProt P51531).
T1 construct: Western Blot Screen of BRM Degradation in SW1573 Cells; endogenous in cells; host or cells: SW1573 cells
The experiment in a line: BRM degradation (Dmax and DC50) in SW1573 cells, Western blot screen / In-Cell Western screen. Type of experiment: cell-based. The settings on record: overnight (18-20 hours) treatment; for Dmax: read-out: Dmax (%)** (% degraded). The method in brief:
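Dmax and DC50 were derived from BRM levels normalised to an alpha-tubulin control, measured by chemiluminescent Western blotting of lysates or by PFA-fixed In-Cell Western on LI-COR Odyssey. SW1573 cells received compound overnight (18–20 h, 0.1% DMSO final).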

T1 sequence (P51531 whole entry): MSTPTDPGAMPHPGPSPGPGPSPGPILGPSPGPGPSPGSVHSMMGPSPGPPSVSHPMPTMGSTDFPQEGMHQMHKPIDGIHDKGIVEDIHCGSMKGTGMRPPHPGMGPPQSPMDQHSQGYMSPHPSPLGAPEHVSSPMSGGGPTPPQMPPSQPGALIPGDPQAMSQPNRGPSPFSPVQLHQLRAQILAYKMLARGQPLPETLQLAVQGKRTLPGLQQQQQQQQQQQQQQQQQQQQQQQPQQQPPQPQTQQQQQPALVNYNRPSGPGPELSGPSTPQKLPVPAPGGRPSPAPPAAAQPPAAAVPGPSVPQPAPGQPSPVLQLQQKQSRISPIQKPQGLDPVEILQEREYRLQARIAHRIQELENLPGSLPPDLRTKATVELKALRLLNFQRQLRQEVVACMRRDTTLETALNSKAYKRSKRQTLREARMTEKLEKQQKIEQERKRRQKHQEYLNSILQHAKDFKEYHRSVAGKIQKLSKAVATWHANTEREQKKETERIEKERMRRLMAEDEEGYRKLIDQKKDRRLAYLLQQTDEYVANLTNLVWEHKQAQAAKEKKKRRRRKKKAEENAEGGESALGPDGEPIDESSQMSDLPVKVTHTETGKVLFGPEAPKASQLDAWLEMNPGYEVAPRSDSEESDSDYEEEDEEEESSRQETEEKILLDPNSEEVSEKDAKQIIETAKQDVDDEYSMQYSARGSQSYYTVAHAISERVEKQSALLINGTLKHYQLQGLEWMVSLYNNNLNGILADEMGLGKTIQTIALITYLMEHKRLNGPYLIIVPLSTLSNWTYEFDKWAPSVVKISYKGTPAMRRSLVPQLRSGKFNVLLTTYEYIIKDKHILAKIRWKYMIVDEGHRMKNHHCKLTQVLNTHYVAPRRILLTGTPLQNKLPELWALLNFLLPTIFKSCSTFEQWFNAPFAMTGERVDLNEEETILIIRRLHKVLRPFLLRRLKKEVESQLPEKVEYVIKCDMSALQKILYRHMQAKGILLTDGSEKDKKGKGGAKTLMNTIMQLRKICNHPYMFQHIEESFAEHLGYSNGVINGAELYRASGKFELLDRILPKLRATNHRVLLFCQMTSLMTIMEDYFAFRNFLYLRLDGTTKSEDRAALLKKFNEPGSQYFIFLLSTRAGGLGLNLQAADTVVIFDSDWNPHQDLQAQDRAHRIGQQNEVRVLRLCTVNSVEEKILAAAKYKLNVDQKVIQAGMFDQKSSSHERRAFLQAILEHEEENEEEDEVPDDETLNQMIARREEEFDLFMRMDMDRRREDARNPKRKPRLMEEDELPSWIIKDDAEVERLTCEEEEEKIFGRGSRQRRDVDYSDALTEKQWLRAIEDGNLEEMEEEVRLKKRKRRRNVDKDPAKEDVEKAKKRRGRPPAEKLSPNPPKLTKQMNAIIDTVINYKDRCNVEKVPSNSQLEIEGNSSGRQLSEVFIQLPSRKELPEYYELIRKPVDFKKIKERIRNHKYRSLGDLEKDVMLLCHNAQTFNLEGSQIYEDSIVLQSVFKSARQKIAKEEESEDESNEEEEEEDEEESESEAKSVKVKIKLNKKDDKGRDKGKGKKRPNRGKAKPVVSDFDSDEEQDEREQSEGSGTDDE

`CC(C)[C@H](C(=O)N1C[C@H](O)C[C@H]1C(=O)N[C@@H](C)c1ccc(-c2scnc2C#CCOCCOCCOCCOCCOc2cc(N3C4CCC3CN(c3cc(-c5ccccc5O)nnc3N)C4)ccn2)cc1)N1Cc2ccccc2C1=O` [Compound 82, (2S,4R)-N-[(1S)-1-[4-(4-{1-[(4-{3-[3-amino-6-(2-hydroxyphenyl)pyridazin-4-yl]-3,8-diazabicyclo[3.2.1]octan-8-yl}pyridin-2-yl)oxy]-3,6,9,12-tetraoxapentadec-14-yn-15-yl}-1,3-thiazol-5-yl)phenyl]ethyl]-4-hydroxy-1-[(2R)-3-methyl-2-(1-oxo-2,3-dihydro-1H-isoindol-2-yl)butanoyl]pyrrolidine-2-carboxamide] registered a DC50 of at least 30 nM.
For `CC(C)[C@@H](C(=O)N1C[C@H](O)C[C@H]1C(=O)N[C@@H](C)c1ccc(-c2scnc2C#CCOCCOCCOCCOCCOc2cc(N3C4CCC3CN(c3cc(-c5ccccc5O)nnc3N)C4)ccn2)cc1)N1Cc2ccccc2C1=O` [Compound 83, (2S,4R)-N-[(1S)-1-[4-(4-{1-[(4-{3-[3-amino-6-(2-hydroxyphenyl)pyridazin-4-yl]-3,8-diazabicyclo[3.2.1]octan-8-yl}pyridin-2-yl)oxy]-3,6,9,12-tetraoxapentadec-14-yn-15-yl}-1,3-thiazol-5-yl)phenyl]ethyl]-4-hydroxy-1-[(2S)-3-methyl-2-(1-oxo-2,3-dihydro-1H-isoindol-2-yl)butanoyl]pyrrolidine-2-carboxamide], the DC50 is at least 30 nM.
Turning to `CC(C)[C@@H](C(=O)N1C[C@H](O)C[C@H]1C(=O)N[C@@H](C)c1ccc(-c2ccnn2C)cc1)c1cc(N2CCC(CN3CCC(O[C@H]4C[C@H](N5CCC(C(C)n6ncc(C#Cc7cc(-c8ccccc8O)nnc7N)c6F)CC5)C4)CC3)CC2)no1` (stereo partly drawn) [Compound 84, (2S,4R)-4-hydroxy-N-[(1S)-1-[4-(1-methyl-1H-pyrazol-5-yl)phenyl]ethyl]-1-[(2R)-3-methyl-2-{3-[4-({4-[(1r,3r)-3-{4-[1-(4-{2-[3-amino-6-(2-hydroxyphenyl)pyridazin-4-yl]ethynyl}-5-fluoro-1H-pyrazol-1-yl)ethyl]piperidin-1-yl}cyclobutoxy]piperidin-1-yl}methyl)piperidin-1-yl]-1,2-oxazol-5-yl}butanoyl]pyrrolidine-2-carboxamide], the DC50 was below 2.5 nM and the Dmax is above 75%.
Compound `Cc1ncsc1-c1ccc([C@H](C)NC(=O)[C@@H]2C[C@@H](O)CN2C(=O)[C@@H](c2cc(N3CCC(CN4CCC(O[C@H]5C[C@H](N6CCC(C(C)c7cn(-c8cc(-c9ccccc9O)nnc8N)cn7)CC6)C5)CC4)CC3)no2)C(C)C)cc1` (stereo partly drawn) [Compound 85, (2S,4R)-4-hydroxy-N-[(1S)-1-[4-(4-methyl-1,3-thiazol-5-yl)phenyl]ethyl]-1-[(2R)-3-methyl-2-{3-[4-({4-[(1r,3r)-3-[4-(1-{1-[3-amino-6-(2-hydroxyphenyl)pyridazin-4-yl]-1H-imidazol-4-yl}ethyl)piperidin-1-yl]cyclobutoxy]piperidin-1-yl}methyl)piperidin-1-yl]-1,2-oxazol-5-yl}butanoyl]pyrrolidine-2-carboxamide] showed a DC50 of at least 30 nM.
Regarding `CC(C)[C@H](C(=O)N1C[C@H](O)C[C@H]1C(=O)N[C@@H](C)c1ccc(-c2scnc2C#CCOCCOCCOc2cc(N3C4CCC3CN(c3cc(-c5ccccc5O)nnc3N)C4)ccn2)cc1)N1Cc2ccccc2C1=O` [Compound 86], the DC50 is 2.5 to 10 nM and the Dmax was above 75%.
Take `Cc1ncsc1-c1ccc([C@H](C)NC(=O)[C@@H]2C[C@@H](O)CN2C(=O)[C@@H](c2cc(N3CCC(CN4CCC5(CC4)CC(N4CCO[C@H](C(C)n6cc(-c7cc(-c8ccccc8O)nnc7N)cn6)C4)C5)CC3)no2)C(C)C)cc1` (stereo partly drawn) [Compound 88, (2S,4R)-1-[(2R)-2-{3-[4-({2-[(2S)-2-(1-(4-[3-amino-6-(2-hydroxyphenyl)pyridazin-4-yl]-1H-pyrazol-1-yl}ethyl)morpholin-4-yl]-7-azaspiro[3.5]nonan-7-yl}methyl)piperidin-1-yl]-1,2-oxazol-5-yl}-3-methylbutanoyl]-4-hydroxy-N-[(1S)-1-[4-(4-methyl-1,3-thiazol-5-yl)phenyl]ethyl]pyrrolidine-2-carboxamide]: the DC50 was below 2.5 nM and the Dmax is above 75%.
Turning to `Cc1ncsc1-c1ccc([C@H](C)NC(=O)[C@@H]2C[C@@H](O)CN2C(=O)[C@@H](c2cc(N3CCC(CN4CCC5(CC4)CC(N4CCO[C@@H](C(C)n6cc(-c7cc(-c8ccccc8O)nnc7N)cn6)C4)C5)CC3)no2)C(C)C)cc1` (stereo partly drawn) [Compound 89, (2S,4R)-1-[(2R)-2-{3-[4-({2-[(2R)-2-(1-{4-[3-amino-6-(2-hydroxyphenyl)pyridazin-4-yl]-1H-pyrazol-1-yl}ethyl)morpholin-4-yl]-7-azaspiro[3.5]nonan-7-yl}methyl)piperidin-1-yl]-1,2-oxazol-5-yl}-3-methylbutanoyl]-4-hydroxy-N-[(1S)-1-[4-(4-methyl-1,3-thiazol-5-yl)phenyl]ethyl]pyrrolidine-2-carboxamide], the DC50 was below 2.5 nM and the Dmax was above 75%.
With `Cc1nccn1-c1ccc([C@H](C)NC(=O)[C@@H]2C[C@@H](O)CN2C(=O)[C@H](c2cc(N3CCC(CN4CCC(O[C@H]5C[C@H](N6CCC(C(C)n7cc(C#Cc8cc(-c9ccccc9O)nnc8N)cn7)CC6)C5)CC4)CC3)no2)C(C)C)cc1` (stereo partly drawn) [Compound 90, (2S,4R)-4-hydroxy-N-[(1S)-1-[4-(2-methyl-1H-imidazol-1-yl)phenyl]ethyl]-1-[(2S)-3-methyl-2-{3-[4-({4-[(1r,3r)-3-{4-[1-(4-{2-[3-amino-6-(2-hydroxyphenyl)pyridazin-4-yl]ethynyl}-1H-pyrazol-1-yl)ethyl]piperidin-1-yl}cyclobutoxy]piperidin-1-yl}methyl)piperidin-1-yl]-1,2-oxazol-5-yl}butanoyl]pyrrolidine-2-carboxamide], the DC50 was at least 30 nM.
`Cc1nccn1-c1ccc([C@H](C)NC(=O)[C@@H]2C[C@@H](O)CN2C(=O)[C@@H](c2cc(N3CCC(CN4CCC(O[C@H]5C[C@H](N6CCC(C(C)n7cc(C#Cc8cc(-c9ccccc9O)nnc8N)cn7)CC6)C5)CC4)CC3)no2)C(C)C)cc1` (stereo partly drawn) [Compound 91, (2S,4R)-4-hydroxy-N-[(1S)-1-[4-(2-methyl-1H-imidazol-1-yl)phenyl]ethyl]-1-[(2R)-3-methyl-2-{3-[4-({4-[(1r,3r)-3-{4-[1-(4-{2-[3-amino-6-(2-hydroxyphenyl)pyridazin-4-yl]ethynyl}-1H-pyrazol-1-yl)ethyl]piperidin-1-yl}cyclobutoxy]piperidin-1-yl}methyl)piperidin-1-yl]-1,2-oxazol-5-yl}butanoyl]pyrrolidine-2-carboxamide]: the DC50 was below 2.5 nM and the Dmax was above 75%.
Regarding `CC(C)[C@H](C(=O)N1C[C@H](O)C[C@H]1C(=O)N[C@@H](C)c1ccc(C#N)cc1)c1cc(O[C@H]2C[C@H](C(C)(C)N3CCC(O[C@H]4C[C@H](Oc5cc(N6C7CCC6CN(c6cc(-c8ccccc8O)nnc6N)C7)ccn5)C4)CC3)C2)no1` [Compound 93, (2S,4R)-N-[(1S)-1-(4-cyanophenyl)ethyl]-4-hydroxy-1-[(2S)-3-methyl-2-{3-[(1r,3r)-3-(2-{4-[(1r,3r)-3-[(4-{3-[3-amino-6-(2-hydroxyphenyl)pyridazin-4-yl]-3,8-diazabicyclo[3.2.1]octan-8-yl}pyridin-2-yl)oxy]cyclobutoxy]piperidin-1-yl}propan-2-yl)cyclobutoxy]-1,2-oxazol-5-yl}butanoyl]pyrrolidine-2-carboxamide], the DC50 was at least 30 nM.

The term DC50 denotes the concentration giving 50% degradation. A higher DC50 goes with degradation only at high concentration. As a reminder, the Dmax is the greatest extent of degradation seen.

(Values after patent publication US20250059198A1, “BRM DEGRADING COMPOUNDS AND ASSOCIATED METHODS OF USE” (Arvinas Operations, Inc., priority 2021, published 2025).)
